Source: US20260224566A1, “Obicetrapib and Ezetimibe Combination Treatment and Fixed Dose Pharmaceutical Compositions” (NewAmsterdam Pharma B.V., priority 2023, published 2026)

Experiments:
Format in all cases: in vivo, mouse
[1] = system: ApoE*3-Leiden.CETP transgenic mice; assay: Example 12: plasma lipids, VLDL clearance, LDL receptor, fecal and biliary sterols in ApoE*3-Leiden.CETP mice
Excerpt: Obicetrapib is a selective cholesteryl ester transfer protein (CETP) inhibitor currently in clinical development for the treatment of hypercholesterolemia and reduction of cardiovascular risk that strongly reduces Apolipoprotein B (ApoB) and low-density lipoprotein cholesterol (LDL-C) and concomitantly increases plasma high-density lipoprotein cholesterol (HDL-C). Ezetimibe reduces absorption of biliary and dietary cholesterol from the small intestine, thereby reducing LDL-C levels. The current study was carried out to elucidate the mechanism of action responsible for the observed decrease in non-HDL-C by obicetrapib monotherapy and in combination with ezetimibe in a translational mouse model for hyperlipidemia and atherosclerosis.
The experimental protocol is illustrated in FIG. 71, with time (t) measured in weeks. Female ApoE*3-Leiden.CETP transgenic mice were fed a Western diet with 0.05% w/w cholesterol (equivalent to daily human intake) with (i) no drug (control), or the same diet containing (ii) obicetrapib alone (2 mg/kg/day), (iii) ezetimibe alone (1 mg/kg/day) or (iv) the combination of obicetrapib and ezetimibe. In the experiment, the effects of the treatments on, amongst other things, plasma blood lipids and fecal bile acids and sterols were determined.

[2] = biological target: T1, CETP (Homo sapiens, UniProt P11597); assay: Example 13: CETP activity and mass in ApoE*3-Leiden.CETP mice
T1 construct: from tissue; host or cells: female ApoE*3-Leiden.CETP transgenic mice dosed in vivo
T1 sequence (P11597 18-493): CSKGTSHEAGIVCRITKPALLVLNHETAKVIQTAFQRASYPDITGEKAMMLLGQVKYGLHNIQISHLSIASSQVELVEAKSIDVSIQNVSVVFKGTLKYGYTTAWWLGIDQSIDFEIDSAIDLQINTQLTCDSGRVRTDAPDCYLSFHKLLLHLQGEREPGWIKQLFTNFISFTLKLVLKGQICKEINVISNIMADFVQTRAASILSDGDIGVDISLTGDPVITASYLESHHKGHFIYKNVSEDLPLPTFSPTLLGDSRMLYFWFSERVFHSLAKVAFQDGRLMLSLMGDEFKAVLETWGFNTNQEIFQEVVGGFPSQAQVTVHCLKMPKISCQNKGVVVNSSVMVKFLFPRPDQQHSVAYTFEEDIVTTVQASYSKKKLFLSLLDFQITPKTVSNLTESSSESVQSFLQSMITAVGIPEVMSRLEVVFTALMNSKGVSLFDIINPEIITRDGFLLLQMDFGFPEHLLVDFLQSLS
Procedure: (§1) The experimental protocol is illustrated in FIG. 82, with time (t) measured in weeks. Female ApoE*3-Leiden.CETP transgenic mice were fed a Western diet with 0.05% w/w cholesterol (equivalent to daily human intake) with (i) no drug (control), or the same diet containing (ii) obicetrapib alone (2 mg/kg/day), (iii) ezetimibe alone (on average 0.6 mg/kg/day) or (iv) the combination of obicetrapib and ezetimibe.

[3] = system: ApoE*3-Leiden.CETP transgenic mice; assay: Example 13: plasma cholesterol and atherosclerosis development in aortic root of ApoE*3-Leiden.CETP mice
Procedure: The current study was carried out to evaluate the effect of obicetrapib monotherapy and a combination of obicetrapib+ezetimibe on atherosclerosis development in a translational mouse model for hyperlipidemia and atherosclerosis.
as §1

[4] = obicetrapib 2 mg/kg/day, ezetimibe 1 mg/kg/day in Western diet
[5] = obicetrapib 2 mg/kg/day, ezetimibe on average 0.6 mg/kg/day in Western diet
[6] = aortic root, 28 weeks of treatment

SMILES: CCOC(=O)N1c2ccc(C(F)(F)F)cc2[C@@H](N(Cc2cc(C(F)(F)F)cc(C(F)(F)F)c2)c2ncc(OCCCC(=O)O)cn2)C[C@H]1CC [obicetrapib, {4-[(2-{[3,5-bis(trifluoromethyl)benzyl] [(2R,4S)-1-(ethoxycarbonyl)-2-ethyl-6-(trifluoromethyl)-1,2,3,4-tetrahydroquinolin-4-yl]amino}pyrimidin-5-yl)oxy]butanoic acid}]
- triglycerides levels ([1]; FIG. 74): decreased
- liver uptake of VLDL like particles ([1]; FIG. 77): increased
- plasma pcsk-9 levels ([1]; FIG. 78): decreased
- cholesterol balance ([1]; FIG. 81): decreased
- biliary bile acids and biliary bile acid flow ([1]; not shown): did not affect
- biliary phospholipids and biliary phospholipid flow ([1]; not shown): did not affect
- fecal bile acid excretion, change ([1]; obicetrapib 2 mg/kg/day in Western diet): +41%
- ApoA1 levels, increase [1, 4]: 98%
- HDL-C, change [1, 4]: +260%
- half-life of VLDL-like particles, change [1, 4]: −44%
- hepatic LDL receptor expression, change [1, 4]: +63%
- non-HDL-C levels, change [1, 4]: −61%
- total plasma cholesterol levels, change [1, 4]: −42%
- cetp mass ([2]; FIG. 87B): without statistically significant changes
- CETP activity, change [2, 5]: −98%
- HDL-cholesterol ([3]; FIG. 84B): increases
- percentage of unaffected segments, increase [3, 6]: +347%
- severe lesions (types IV-V), change [3, 6]: −82%
- total atherosclerotic lesion size, change ([3]; aortic root, 28 weeks of treatment, versus control): −90%
- non-HDL-C levels, change [3, 5]: −53%
- total plasma cholesterol levels, change [3, 5]: −31%
- lesion number ([3]; versus control animals, FIG. 90B): statistically significant reductions
